Results taken from patent publication US20190119282A1, “IMIDAZOPYRIDAZINES USEFUL AS INHIBITORS OF THE PAR-2 SIGNALING PATHWAY” (Vertex Pharmaceuticals Incorporated, priority 2013, published 2019).

Tests used:
[1] = target: T1, PAR2 (HT-29 cells, SLIGKV activation) (Homo sapiens, UniProt P55085); test: Ca FLIPR TETRA assay, ANTAGONIST mode, stimulation with 8 μM SLIGKV; format: cell-based; conditions: for IC50: HT-29 cells, stimulation with 8 μM SLIGKV
T1 construct: host or cells: HT-29 cells
T1 sequence (P55085 26-397): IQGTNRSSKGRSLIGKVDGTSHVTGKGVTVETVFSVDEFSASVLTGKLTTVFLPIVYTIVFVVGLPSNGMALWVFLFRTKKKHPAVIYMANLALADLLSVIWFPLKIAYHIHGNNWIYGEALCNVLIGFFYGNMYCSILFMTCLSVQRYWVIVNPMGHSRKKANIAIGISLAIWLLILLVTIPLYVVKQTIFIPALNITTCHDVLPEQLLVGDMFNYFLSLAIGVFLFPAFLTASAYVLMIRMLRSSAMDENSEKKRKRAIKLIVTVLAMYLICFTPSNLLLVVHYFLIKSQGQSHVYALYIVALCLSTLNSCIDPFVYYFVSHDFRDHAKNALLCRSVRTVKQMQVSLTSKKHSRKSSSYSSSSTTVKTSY
Procedure, shortened: (§1)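 Intracellular calcium is measured by fluorescence in HT-29 cells loaded with calcium 5 reagent. Compounds sit on the cells 30 min at room temperature before challenge with trypsin (3.1 U/mL) or SLIGKV (8 μM) for PAR2, or with thrombin (1 U/mL) or UTP (0.6 μM) as counter-stimuli.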

[2] = tested on: UTP-stimulated Ca2+ response in HT-29 cells; test: Ca FLIPR TETRA assay, ANTAGONIST mode, stimulation with 0.6 μM UTP; format: cell-based, human; conditions: Homo sapiens; HT-29 cells, stimulation with 0.6 μM UTP
Procedure, shortened: as §1

[3] = target: T2, PAR2 (HT-29 cells, trypsin activation) (Homo sapiens, UniProt P55085); test: Ca FLIPR TETRA assay, ANTAGONIST mode, stimulation with 3.1 U/mL trypsin; format: cell-based; conditions: HT-29 cells, stimulation with 3.1 U/mL trypsin
T2 construct: host or cells: HT-29 cells
T2 sequence (P55085 26-397): T1 sequence (P55085 26-397)
Procedure, shortened: as §1

[4] = tested on: Thrombin-stimulated Ca2+ response in HT-29 cells; test: Ca FLIPR TETRA assay, ANTAGONIST mode, stimulation with 1 U/mL Thrombin; format: cell-based, human; conditions: Homo sapiens; HT-29 cells, stimulation with 1 U/mL Thrombin
Procedure, shortened: as §1

SMILES	IC50 [1] [µM]	IC50 [2] [µM]	IC50 [3] [µM]	IC50 [4] [µM]	SLIGKV % @ concentration ([1]; @ 1.9 (μM)) [% @ 1.9]	SLIGKV % @ concentration ([1]; @ 5.6 (μM)) [% @ 5.6]
C[C@H](O)C(=O)N1CCN(C(=O)c2cn3nc(-c4ccc(F)cc4)cc(C4(C)CC4)c3n2)C(C)(C)C1 [Compound I-34, (2S)-1-[4-[6-(4-fluorophenyl)-8-(1-methylcyclopropyl)imidazo[1,2-b]pyridazine-2-carbonyl]-3,3-dimethyl-piperazin-1-yl]-2-hydroxy-propan-1-one]	0.054	21	0.059	21	–	–
CC1(C)C(=O)NCCN1C(=O)c1cn2nc(-c3ccc(F)cc3)cc(C(F)(F)F)c2n1 [Compound I-35, 4-[6-(4-Fluorophenyl)-8-(trifluoromethyl)imidazo[1,2-b]pyridazine-2-carbonyl]-3,3-dimethyl-piperazin-2-one]	0.023	41	0.062	43	–	–
CC(C)(O)C(=O)N1CCN(C(=O)c2cn3nc(-c4ccc(F)cc4)cc(C(F)(F)F)c3n2)C(C)(C)C1 [Compound I-36, 1-[4-[6-(4-Fluorophenyl)-8-(trifluoromethyl)imidazo[1,2-b]pyridazine-2-carbonyl]-3,3-dimethyl-piperazin-1-yl]-2-hydroxy-2-methyl-propan-1-one]	0.071	> 50	0.24	> 50	–	–
CC1(C)CN(C(=O)C2(O)CCC2)CCN1C(=O)c1cn2nc(-c3ccc(F)cc3)cc(C(F)(F)F)c2n1 [Compound I-37, [6-(4-Fluorophenyl)-8-(trifluoromethyl)imidazo[1,2-b]pyridazin-2-yl]-[4-(1-hydroxycyclobutanecarbonyl)-2,2-dimethyl-piperazin-1-yl]methanone]	0.2	> 50	0.25	> 50	–	–
CC1(C)CN(C(=O)C2(O)CCOCC2)CCN1C(=O)c1cn2nc(-c3ccc(F)cc3)cc(C(F)(F)F)c2n1 [Compound I-38, [6-(4-Fluorophenyl)-8-(trifluoromethyl)imidazo[1,2-b]pyridazin-2-yl]-[4-(4-hydroxytetrahydropyran-4-carbonyl)-2,2-dimethyl-piperazin-1-yl]methanone]	0.39	> 45	0.48	> 50	–	–
C[C@H](O)C(=O)N1CCN(C(=O)c2cn3nc(-c4ccc(F)cc4)cc(C(F)(F)F)c3n2)C(C)(C)C1 [Compound I-39, (2S)-1-[4-[6-(4-Fluorophenyl)-8-(trifluoromethyl)imidazo[1,2-b]pyridazine-2-carbonyl]-3,3-dimethyl-piperazin-1-yl]-2-hydroxy-propan-1-one]	0.83	> 50	0.86	> 50	–	–
CC(C)c1cc(C2=CCCCC2)nn2cc(C(=O)N3CCN(C(=O)C4(O)CCC4)CC3(C)C)nc12 [Compound I-40, [6-(Cyclohexen-1-yl)-8-isopropyl-imidazo[1,2-b]pyridazin-2-yl]-[4-(1-hydroxycyclobutanecarbonyl)-2,2-dimethyl-piperazin-1-yl]methanone]	0.072	17	0.37	24	–	–
CC(C)c1cc(C2CCCCC2)nn2cc(C(=O)N3CCN(C(=O)C4(O)CCC4)CC3(C)C)nc12 [Compound I-41, (6-Cyclohexyl-8-isopropyl-imidazo[1,2-b]pyridazin-2-yl)-[4-(1-hydroxycyclobutanecarbonyl)-2,2-dimethyl-piperazin-1-yl]methanone]	0.061	21	0.28	20	–	–
CC(C)c1cc(C#CC2CC2)nn2cc(C(=O)N3CCN(C(=O)C4(O)CCC4)CC3(C)C)nc12 [Compound I-42, [6-(2-Cyclopropylethynyl)-8-isopropyl-imidazo[1,2-b]pyridazin-2-yl]-[4-(1-hydroxycyclobutanecarbonyl)-2,2-dimethyl-piperazin-1-yl]methanone]	2.2	41	5.2	32	–	–
CC(C)c1cc(C2=CCCC2)nn2cc(C(=O)N3CCN(C(=O)C4(O)CCC4)CC3(C)C)nc12 [Compound I-43, [6-(Cyclopenten-1-yl)-8-isopropyl-imidazo[1,2-b]pyridazin-2-yl]-[4-(1-hydroxycyclobutanecarbonyl)-2,2-dimethyl-piperazin-1-yl]methanone]	0.48	31	1.1	27	–	–
CC(C)c1cc(C2=CCOCC2)nn2cc(C(=O)N3CCN(C(=O)C4(O)CCC4)CC3(C)C)nc12 [Compound I-44, [6-(3,6-dihydro-2H-pyran-4-yl)-8-isopropyl-imidazo[1,2-b]pyridazin-2-yl]-[4-(1-hydroxycyclobutanecarbonyl)-2,2-dimethyl-piperazin-1-yl]methanone]	5	> 50	9.5	> 50	–	–
CC(C)c1cc(C2CCOCC2)nn2cc(C(=O)N3CCN(C(=O)C4(O)CCC4)CC3(C)C)nc12 [Compound I-45, [4-(1-hydroxycyclobutanecarbonyl)-2,2-dimethyl-piperazin-1-yl]-(8-isopropyl-6-tetrahydropyran-4-yl-imidazo[1,2-b]pyridazin-2-yl)methanone]	20	> 50	> 50	> 50	–	–
C[C@H]1CN(C(=O)c2cn3nc(-c4ccc(F)cc4)cc(C(F)(F)F)c3n2)CCN1C(=O)OCc1ccccc1 [Compound I-46]	0.04	> 5	0.095	> 5	–	–
O=C(c1cn2nc(-c3ccc(F)cc3)cc(C(F)(F)F)c2n1)N1CCCCC1CO (stereo not shown) [Compound I-47]	3.1	32	7.5	16	–	–
COC(=O)[C@@H]1C[C@@H](C)CN(C(=O)c2cn3nc(-c4ccc(F)cc4)cc(C(F)(F)F)c3n2)C1 [Compound I-49]	0.53	6	1.5	5.2	–	–
O=C(c1cn2nc(-c3ccc(F)cc3)cc(C(F)(F)F)c2n1)N1CCN(C(=O)N2CCCCC2)CC1 [Compound I-50]	–	> 50	27	> 50	44	–
CC(C)(C)C[C@@H](O)C(=O)N1CCN(C(=O)c2cn3nc(-c4ccc(F)cc4)cc(C(F)(F)F)c3n2)CC1 [Compound I-52]	0.14	16	0.35	47	–	–
O=C(OCc1ccccc1)N1CCN(C(=O)c2cn3nc(-c4ccc(F)cc4)cc(C(F)(F)F)c3n2)CC1 [Compound I-53]	–	> 50	21	> 50	–	55
CC(C(=O)NC1CC1)N1CCN(C(=O)c2cn3nc(-c4ccc(F)cc4)cc(C(F)(F)F)c3n2)CC1 (stereo not shown) [Compound I-55]	0.95	> 50	3.1	> 50	–	–
O=C(c1cn2nc(-c3ccc(F)cc3)cc(C(F)(F)F)c2n1)N1CCN(CCn2ccnc2)CC1 [Compound I-56]	23	> 50	> 50	> 50	–	–
CCS(=O)(=O)N1CCN(C(=O)c2cn3nc(-c4ccc(F)cc4)cc(C(F)(F)F)c3n2)CC1 [Compound I-57]	0.59	> 50	48	> 50	–	–
CCC(=O)N1CCN(C(=O)c2cn3nc(-c4ccc(F)cc4)cc(C(F)(F)F)c3n2)CC1 [Compound I-59]	22	> 50	2	> 50	–	–
